Experiments:
Assay type in all cases: cell-based
[1] = test system: MDA-MB-231 cells; experiment: Western blot of FOXC2 target/non-target genes, EMT, CSC and apoptosis markers in MDA-MB-231; settings: MDA-MB-231, 20 μM
Procedure: MC-1-F2's effect on FOXC2-mediated transcription was examined by measuring PDGFR-β expression levels, a downstream effector of FOXC2 (Hollier et al., 2013). […] (FIGS. 16A&B). To validate the specificity of the ligand to FOXC2, Western blot analysis was carried out on the non-target genes of FOXC2, p38 and GSK3P3.
Next, it was examined if FOXC2 inhibition by MC-1-F2 can affect EMT progression. […] It has been shown that inhibition of downstream or upstream targets of other EMT-associated transcription factors such as Snail, Slug and Twist leads to the decreased EMT progression, through the re-expression of E-cadherin (Bachelder et al., 2005; Ren et al., 2013). However, the impact of direct inhibition of EMT-associated transcription factors including FOXC2 on EMT progression has never been explored until now due to the lack of small molecule inhibitors directly targeting these transcription factors.
As EMT is known to bestow on cells CSC-like properties (Hollier et al., 2013), MC-1-F2 should be able to repress CSC characteristics in cells undergoing EMT. In order to examine the effects of MC-1-F2 on CSC properties, a Western blot analysis of MDA-MB-231 cell with and without treatment of MC-1-F2 was carried out, analyzing the CSC markers c-Myc, KLF4, and Nanog. […] In order to further evaluate the effect of MC-1-F2 on CSC properties and EMT progression, β-catenin nuclear localization was examined (FIG. 5D). β-catenin is involved in both EMT progression and acquisition of CSC properties (Kalluri & Weinberg, 2009, Schmalhofer et al., 2009). A repression of E-cadherin has shown to initiate a nuclear localization of β-catenin, leading to an initiation of several EMT signals (Schmalhofer et al., 2009). Moreover, nuclear localization β-catenin is the hallmark of an active Wnt pathway, a major pathway that contributes to CSC properties (Beck & Blanpain, 2013). […] Only nuclear fraction of β-catenin bestows CSC properties on cells.
50 μg of total protein per sample was incubated with 4× loading buffer at 100° C. for 5 min. Protein samples were then loaded into a polyacrylamide gel and subjected to SDS-PAGE. Resolved proteins were then transferred by a wet transfer method to a PVDF membrane at 100 V for 1 hour using a BioRad Mini Trans-Blot Electrophoresis Transfer Cell. Upon the completion of wet transfer, the membrane was then blocked with 5% (w/v) fat-free milk in 1× Tris-buffered saline/0.1% (v/v) Tween-20 (TBS-T) for at least 1 hour. Then incubated with the respective primary antibodies diluted in 5% BSA in 1×TBST at 4° C. overnight. The following day exposed to 1:1000 dilution of anti-mouse or anti-rabbit HRP-conjugated secondary antibodies in 5% (w/v) fat-free milk in 1×TBS-T for 1 hour at room temperature. The probed proteins were then detected for chemiluminescent signal using SuperSignal Chemiluminescent Substrate (PIERCE). Pierce antibodies: B-actin, and all other antibodies used are from cell signaling. MG132 treatment was added to cells (0.5 μM) for 1-hour incubation prior to compound treatment, no more than 24 hours total exceeded during MG132 incubation.

[2] = test system: MDA-MB-231 cells; experiment: MTT cell viability assay, MDA-MB-231; settings: Homo sapiens; MDA-MB-231, MTT, high FOXC2 expression
Procedure: It was hypothesized that the specific binding of MC-1-F2 can lead to its specific cellular activity against cancer cells with high FOXC2 expression. This hypothesis was tested by evaluating MC-1-F2's cellular activity on cell lines with different FOXC2 expression levels: MCF-7, BT549, and MDA-MB-231. […] However, further studies are still underway. The specificity in cellular activity of MC-1-F2 was further evaluated in the form of a soft-agar colony forming assay to determine if MC-1-F2 was able to inhibit in vitro tumorigenicity of cancer cells in a FOXC2 expression-dependent manner. […] Further testing is underway in various breast cancer cell lines with different FOXC2 expression levels.
Cell viability was assessed by MTT (3-(4,5-Dimethylthiazol-2-yl)-2,5-Diphenyltetrazolium Bromide) assay. 1×10^4 cells were seeded on 48-well cell culture plate, and were incubated for at least 24 hours prior to drug treatment. The MTT reagent (Fisher Scientific) was added to the culture medium 3 hours prior to the end of compound incubation. The reaction took place in the 37° C. incubator with 5% CO2 for 3 hours. Cell culture medium was then removed from the wells. Cells with the insoluble purple formazan were lysed with DMSO for 10 mins at room temperature, 0.5 ml per well. The solution was aliquot to 96-well plate for absorbance reading at 570 nm using a plate reader.

[3] = test system: PC3 cells; experiment: Transwell invasion assay, PC3; settings: PC3, 24 hours, vs DMSO
Procedure: (§1) Following determination of both inhibition of EMT and CSC properties, the inhibition of the migratory and invasive capabilities of both cell lines following MC-1-F2 treatment was examined through the use of a transwell invasion assay.
(§2) Matrigel invasion chambers (Corning) were allowed to come to room temperature and allowed to rehydrate for 2 hours in a cell incubator. Cells were treated 24 hours prior to assay and starved in 2% FBS in DMEM for 2 hours prior to assay. A cell suspension containing 5×10^4 cells/mL was prepared. Chemoattractant (DMEM+10% FBS) was added to the bottom of the wells. Using forceps, the inserts were transferred inside the wells and 0.5 mL of cell suspension was immediately added. The chambers were incubated for 22 hours in a humidified tissue culture incubator. After the 22 hours, the non-invading cells were removed by scrubbing the surface of the membrane. The cells were fixated with 4% formaldehyde solution for 2 minutes at room temperature. Followed by permeabilization of the membrane with 100% MeOH for 20 minutes at room temperature. The cells were stained with 0.5% crystal violet solution and several images of the wells were then taken and total number of cells counted for analysis.

[4] = test system: LNCaP cells; experiment: Transwell invasion assay, LNCaP; settings: androgen-dependent, low FOXC2 expression, 20 μM, 24 hours
Procedure: as §1, §2

[5] = 48 hours, non-target gene of FOXC2

For `N=C(N)NCCCCNc1nc(Nc2ccc(Oc3ccccc3)cc2)nc(N2CCN(c3nc(N)nc(Nc4ccc(N5CCOCC5)cc4)n3)CC2)n1` [MC-1-F2], the PDGFR-β expression levels ([1]; 24 or 48 hours) was “decrease in PDGFR-β expression levels”, the E-cadherin expression ([1]; 48 hours) was “increase E-cadherin expression” and the “KLF4 expression (CSC marker)” value ([1]; 48 hours) was “decrease”. The MMP2 expression ([1]; 48 hours) was “downregulated the expression”, the N-cadherin expression ([1]; 48 hours) was “downregulation of N-cadherin” and the “Nanog expression (CSC marker)” value ([1]; 48 hours) was “no statistical difference”. The Slug expression ([1]; 48 hours) was “decrease in other mesenchymal markers”, the Snail protein level ([1]; 48 hours) was “did not affect the protein level” and the Vimentin expression ([1]; 48 hours) was “decrease in other mesenchymal markers”. For the same compound, the ZEB1 expression ([1]; 48 hours) was “downregulate ZEB1”, the “c-Myc expression (CSC marker)” value ([1]; 48 hours) was “decrease” and the “cytosolic fraction of β-catenin” value ([1]; 48 hours) was “increase in the cytosolic fractions”. For the same compound, the “induction of apoptosis (Western blot of Bad, phospho-Bad, Bak, Bax)” value ([1]; 48 hours) was “induction of an apoptosis”, the “nuclear fraction of β-catenin” value ([1]; 48 hours) was “decrease in the nuclear fraction” and the GSK3β expression levels [1, 5] was “no effect on the expression levels”. For the same compound, the p38 expression levels [1, 5] was “no effect on the expression levels”, the EC50 [2] was about 20 µM and the “invasiveness (transwell invasion)” value [3] was “remarkable inhibition in invasiveness”. For the same compound, the “number of invasive cells (transwell invasion)” value [4] was “saw to change in the number of invasive cells”.

— patent US10814010B2, “FOXC2 inhibitor and methods of use thereof” (The Board of Regents of The University of Texas System, priority 2018, dated 2020)
